Laboratory results published in the supplement of paper PMC10307832.

Tests used:
Assay in all cases: relative viability (nuclei count vs DMSO), 5 days (fraction); higher = more cells survive
Linsitinib + Navitoclax = compound: C[C@]1(O)C[C@@H](c2nc(-c3ccc4ccc(-c5ccccc5)nc4c3)c3c(N)nccn32)C1 [Linsitinib] + CC1(C)CCC(c2ccc(Cl)cc2)=C(CN2CCN(c3ccc(C(=O)NS(=O)(=O)c4ccc(N[C@H](CCN5CCOCC5)CSc5ccccc5)c(S(=O)(=O)C(F)(F)F)c4)cc3)CC2)C1 [Navitoclax] (partner 0.5 µM)
Summary of the method: (§1)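 Cells from lung cancer lines were seeded into 1536-well plates and, one day later, dosed by pin tool. Treatments were either a single drug or a fixed dose of an anchor drug with five library-drug doses (not always all listed) in √10 steps. After 5 days, nuclei were stained in a one-step fixation (final 0.05% Triton X-100, 1% formaldehyde, 1 ug/ml Hoechst) and counted on 4× images, and relative viability is the treated-to-vehicle nuclei ratio, as the median of duplicate plates.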

Linsitinib + Palbociclib = compound: C[C@]1(O)C[C@@H](c2nc(-c3ccc4ccc(-c5ccccc5)nc4c3)c3c(N)nccn32)C1 [Linsitinib] + CC(=O)c1c(C)c2cnc(Nc3ccc(N4CCNCC4)cn3)nc2n(C2CCCC2)c1=O [Palbociclib] (partner 0.5 µM)
Summary of the method: as §1

Ispinesib + Phenformin = compound: Cc1ccc(C(=O)N(CCCN)[C@@H](c2nc3cc(Cl)ccc3c(=O)n2Cc2ccccc2)C(C)C)cc1 [Ispinesib] + N=C(N)NC(=N)NCCc1ccccc1 [Phenformin] (partner 250 µM)
Summary of the method: as §1

Ispinesib + Olaparib = compound: Cc1ccc(C(=O)N(CCCN)[C@@H](c2nc3cc(Cl)ccc3c(=O)n2Cc2ccccc2)C(C)C)cc1 [Ispinesib] + O=C(c1cc(Cc2n[nH]c(=O)c3ccccc23)ccc1F)N1CCN(C(=O)C2CC2)CC1 [Olaparib] (partner 8 µM)
Summary of the method: as §1

Cell Line: UMC-11
- relative viability (Linsitinib + Navitoclax; first compound 0.01 µM): 0.317
- relative viability (Linsitinib + Navitoclax; first compound 0.03162 µM): 0.301
- relative viability (Linsitinib + Navitoclax; first compound 0.1 µM): 0.315
- relative viability (Linsitinib + Navitoclax; first compound 1 µM): 0.302
- relative viability (Linsitinib + Palbociclib; first compound 0.01 µM): 0.303
- relative viability (Linsitinib + Palbociclib; first compound 0.03162 µM): 0.301
- relative viability (Linsitinib + Palbociclib; first compound 0.1 µM): 0.33
- relative viability (Linsitinib + Palbociclib; first compound 0.3162 µM): 0.322
- relative viability (Linsitinib + Palbociclib; first compound 1 µM): 0.332
- relative viability (Ispinesib + Phenformin; first compound 0.001 µM): 0.346
- relative viability (Ispinesib + Phenformin; first compound 0.003162 µM): 0.327
- relative viability (Ispinesib + Phenformin; first compound 0.01 µM): 0.286
- relative viability (Ispinesib + Phenformin; first compound 0.03162 µM): 0.179
- relative viability (Ispinesib + Phenformin; first compound 0.1 µM): 0.193
- relative viability (Ispinesib + Olaparib; first compound 0.001 µM): 0.693
- relative viability (Ispinesib + Olaparib; first compound 0.003162 µM): 0.389
- relative viability (Ispinesib + Olaparib; first compound 0.01 µM): 0.345
- relative viability (Ispinesib + Olaparib; first compound 0.03162 µM): 0.325
- relative viability (Ispinesib + Olaparib; first compound 0.1 µM): 0.272
